{"source": "PubChem BioAssay AID1259321", "about": "(Sanford-Burnham Center for Chemical Genomics, 2017)", "note": "Calls of active or inactive are those of the source.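 The calls were made as follows: active = half-maximal concentration for changing protein binding to DNA, from the fitted dose curve, below 10 micromolar; inactive = the rest.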", "data": [{"molecular_target": "Nuclear receptor subfamily 1 group D member 1 (Homo sapiens) (UniProt P20393)", "sequence (P20393 whole entry, looked up)": "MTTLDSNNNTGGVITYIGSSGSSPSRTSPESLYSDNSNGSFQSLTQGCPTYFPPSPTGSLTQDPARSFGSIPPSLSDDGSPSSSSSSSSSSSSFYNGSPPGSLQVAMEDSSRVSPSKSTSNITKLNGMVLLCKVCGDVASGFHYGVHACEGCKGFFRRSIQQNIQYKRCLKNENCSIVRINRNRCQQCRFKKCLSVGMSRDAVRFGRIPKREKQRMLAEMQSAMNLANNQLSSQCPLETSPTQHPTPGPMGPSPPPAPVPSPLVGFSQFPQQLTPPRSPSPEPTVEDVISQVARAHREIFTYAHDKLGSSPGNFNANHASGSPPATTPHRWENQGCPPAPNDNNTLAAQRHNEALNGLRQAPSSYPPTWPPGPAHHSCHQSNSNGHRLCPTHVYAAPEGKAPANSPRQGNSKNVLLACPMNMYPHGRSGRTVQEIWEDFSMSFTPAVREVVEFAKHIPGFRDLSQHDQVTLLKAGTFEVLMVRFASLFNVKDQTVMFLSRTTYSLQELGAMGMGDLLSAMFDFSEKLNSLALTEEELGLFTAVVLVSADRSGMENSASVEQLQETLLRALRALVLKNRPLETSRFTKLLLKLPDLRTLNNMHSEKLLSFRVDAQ", "assay": "modulators of Rev-erb alpha DNA binding, dose response, biochemical, FITC-DNA, fluorescence polarization (AID 1259321)", "values": [{"smiles": "C=CCNC(=O)c1ccc(Cn2c(=S)[nH]c3cc4c(cc3c2=O)OCO4)cc1", "IC50": "inactive"}, {"smiles": "Cc1cc(C)c(N=C2SCC(=O)N2Cc2ccco2)c(C)c1", "IC50": "7.22 µM"}, {"smiles": "COc1ccc(-c2nn(C)c3sc(C(=O)NCc4ccco4)cc23)cc1OC", "IC50": "> 40 µM (inactive)"}, {"smiles": "CCOC(=O)/C(C#N)=C/c1cc2ccccc2nc1N1CCCCC1", "IC50": "> 40 µM (inactive)"}, {"smiles": "COc1ccccc1C(=O)Nc1ccc2oc(-c3ccc(F)cc3)nc2c1", "IC50": "0.436 µM"}, {"smiles": "Cc1ccc(C)c(-n2c(-c3ccc(Br)cc3)csc2=NC(=O)c2ccccc2F)c1", "IC50": "inactive"}, {"smiles": "Cc1ccc(S(=O)(=O)c2c[nH]c3ccc(Cl)cc3c2=O)cc1", "IC50": "> 40 µM (inactive)"}, {"smiles": "CCN(CC)C(=O)CSc1nc2cc3c(cc2c(=O)n1Cc1ccc(OC)cc1)OCO3", "IC50": "> 40 µM (inactive)"}, {"smiles": "Cc1oc2cc3oc(=O)c4c(c3cc2c1C)CCC4", "IC50": "> 40 µM (inactive)"}, {"smiles": "CC(=O)c1ccc(S(=O)(=O)N2CCN(c3nc4c(C)c(C)ccc4cc3C#N)CC2)cc1", "IC50": "4.57 µM"}, {"smiles": "O=C(NCc1cc(C(F)(F)F)ccc1Cl)c1cccc2c1C(=O)c1ccc(Cl)cc1S2(=O)=O", "IC50": "4.22 µM"}, {"smiles": "Nc1ccc2c3c(cccc13)C(=O)N(c1ccccc1)C2=O", "IC50": "inactive"}, {"smiles": "O=S(=O)(c1ccc2nc(N3CCN(c4ccccc4F)CC3)ccc2c1)N1CCCCC1", "IC50": "0.838 µM"}, {"smiles": "COc1ccc(C2=NN(C(=O)CSc3ncccn3)C(c3cccc(OC)c3OC)C2)cc1", "note": "(stereo not drawn)", "IC50": "1.5 µM"}, {"smiles": "Nc1ccc2ccc3cccc[n+]3c2c1", "IC50": "8.15 µM"}, {"smiles": "N#Cc1c(N)nc(N2CCCC2)c(C#N)c1-c1ccc(Cl)cc1", "IC50": "4.99 µM"}, {"smiles": "O=C(Cc1ccc(Cl)cc1)c1c[nH]c(C(=O)NCc2cccnc2)c1", "IC50": "2.51 µM"}, {"smiles": "COc1ccc2[nH]cc(/C=C/c3cc[n+](C)cc3)c2c1", "IC50": "5.25 µM"}, {"smiles": "COc1ccc(-c2cc(-c3ccc(C)cc3)nc(SCc3nnc(-c4ccccc4)o3)c2C#N)cc1OC", "IC50": "8.78 µM"}, {"smiles": "CCC(C)OC(=O)c1cc(C)nc2c(Br)cc(Br)cc12", "note": "(stereo not drawn)", "IC50": "7.65 µM"}, {"smiles": "Cc1ccc(S(=O)(=O)c2nnn3c2nc(N2CCN(c4ccccn4)CC2)c2ccccc23)cc1C", "IC50": "3.36 µM"}, {"smiles": "COC(=O)c1ccccc1-c1c2ccc(=N)cc-2oc2cc(N)ccc12", "IC50": "> 40 µM (inactive)"}, {"smiles": "O=C(c1cc2cc(Br)ccc2[nH]1)N1CCc2ccccc21", "IC50": "9.54 µM"}, {"smiles": "O=C(COc1ccc2ccccc2c1Br)NNC(=O)Nc1ccccc1", "IC50": "0.778 µM"}, {"smiles": "O=C(Nc1nc2ccsc2c(=O)s1)c1ccc(Cl)cc1", "IC50": "7.69 µM"}, {"smiles": "COC(=O)c1ccc(Cn2ccc3ccc(-c4ccc5ccn(C(=O)c6ccccc6C)c5c4)cc32)cc1", "IC50": "9.87 µM"}, {"smiles": "CC(=O)c1cccc(NC(=O)c2csc(-n3nc(C)cc3C(F)(F)F)n2)c1", "IC50": "3.61 µM"}, {"smiles": "CC(=O)c1cnc2c(-c3cccc(Br)c3)cnn2c1C", "IC50": "> 40 µM (inactive)"}, {"smiles": "CN(C)c1ccc(/C=C2\\NC(=S)N(Cc3ccccc3)C2=O)cc1", "IC50": "> 40 µM (inactive)"}, {"smiles": "N#CCCN(CCC#N)S(=O)(=O)c1ccc(C(=O)Nc2nc(-c3ccccc3)c(C(=O)c3ccccc3)s2)cc1", "IC50": "> 40 µM (inactive)"}, {"smiles": "CC(C)(C#N)Cc1cc(CC(C)(C)C#N)cc(C(C)(C)C)c1", "IC50": "4.07 µM"}, {"smiles": "Cc1[nH]nc2nc(SCC(=O)NCCC3=CCCCC3)n(-c3ccc(Br)cc3)c(=N)c12", "IC50": "> 40 µM (inactive)"}, {"smiles": "COc1cc(C(=O)Nc2cccc(-c3nc4cc(C)ccc4o3)c2)cc(OC)c1OC", "IC50": "4.32 µM"}, {"smiles": "CCc1cc2cc(C(=O)Nc3ccc(F)cc3)sc2s1", "IC50": "7.03 µM"}, {"smiles": "CCOC(=O)c1sc(NC(=S)NC(=O)C2CCCC2)cc1C", "IC50": "1.8 µM"}, {"smiles": "COc1ccc(-n2ncc3c(N4CCc5ccccc54)ncnc32)cc1", "IC50": "8.26 µM"}, {"smiles": "CC(C)NC(=O)CSc1nc(-c2cccs2)cc(-c2ccccc2)c1C#N", "IC50": "3.27 µM"}, {"smiles": "Oc1ccccc1N=Nc1nc(-c2ccccc2)c(-c2ccccc2)[nH]1", "IC50": "3.98 µM"}, {"smiles": "CCOc1ccc(-c2nnc3ccc(SCC(=O)Nc4nc5ccc(C)cc5s4)nn23)cc1", "IC50": "7.12 µM"}, {"smiles": "COc1ccccc1C(=O)Nc1nc2ccccc2s1", "IC50": "5.23 µM"}, {"smiles": "O=C(CCCn1c(=S)[nH]c2cc3c(cc2c1=O)OCO3)NCc1ccccc1Cl", "IC50": "inactive"}, {"smiles": "COC(=O)Cn1c(C)c(/C=C/c2cc[n+](C)cc2)c2ccccc21", "IC50": "2.25 µM"}, {"smiles": "Cc1cc(C)n2nc(-c3ccc(Cl)cc3)cc2n1", "IC50": "1.64 µM"}, {"smiles": "Cc1nc(NCCc2ccc(Cl)cc2)c2nnn(Cc3ccccc3)c2n1", "IC50": "1.91 µM"}, {"smiles": "COc1ccc(NC(=O)NNC(=O)COc2ccc3cc(Br)ccc3c2)cc1OC", "IC50": "8.29 µM"}, {"smiles": "N#Cc1c(N)nc2c3c(sc(=N)c2c1N)NC(=O)CC3c1c(F)cccc1Cl", "note": "(stereo not drawn)", "IC50": "0.78 µM"}, {"smiles": "CC1(Cc2ccccc2C#N)C(=O)Nc2ccc(-c3ccccc3)cc21", "note": "(stereo not drawn)", "IC50": "6.27 µM"}, {"smiles": "CC1(Cc2ccccc2OC(F)(F)F)C(=O)Nc2ccc(-c3ccsc3)cc21", "note": "(stereo not drawn)", "IC50": "1.7 µM"}, {"smiles": "Cc1nc(SCC(=O)NCc2ccccc2)c2oc3ccccc3c2n1", "IC50": "4.18 µM"}, {"smiles": "N#Cc1c(N)nc(SCC(=O)NCCc2ccccc2)c(C#N)c1-c1cccs1", "IC50": "1.31 µM"}, {"smiles": "CCN(CC)c1ccc(/C=C(\\C#N)C(N)=S)cc1", "IC50": "inactive"}, {"smiles": "COc1ccc(-n2nc(C(=O)NCC(=O)Nc3cccc(Cl)c3)c3ccccc3c2=O)cc1OC", "IC50": "2.6 µM"}, {"smiles": "COc1ccccc1N1N=C(C(=O)c2ccccc2)C2C(=O)N(c3ccc(Br)cc3)C(=O)C21", "note": "(stereo not drawn)", "IC50": "8.96 µM"}]}]}
